Reference: patent US20070049564A1 (Wyeth, priority 2005, published 2007)
≈ marks a conversion by molar mass, not a printed value. Like-named read-outs stand apart in the source and are kept apart here.

Assays:
E. faecalis GC 4555 = experiment: MIC, broth microdilution; settings: Enterococcus faecalis
Staph. aureus Smith = experiment: In vivo activity (oral, iv; ED50) against Staph. aureus Smith in mice
S. agalactiae GC 4564 = experiment: MIC, broth microdilution; settings: Streptococcus agalactiae
E. coli GC 2235 = experiment: MIC, broth microdilution; settings: Escherichia coli
E. faecalis GC 2242 = experiment: MIC, broth microdilution; settings: Enterococcus faecalis
E. faecalis GC 2267 = experiment: MIC, broth microdilution; settings: Enterococcus faecalis
E. coli GC 4560 = experiment: MIC, broth microdilution; settings: Escherichia coli
S. aureus GC 1079 = experiment: MIC, broth microdilution; settings: Staphylococcus aureus
E. coli GC 4559 = experiment: MIC, broth microdilution; settings: Escherichia coli
c. albicans GC 3066 = experiment: MIC, broth microdilution
E. coli GC 1073 = experiment: MIC, broth microdilution; settings: Escherichia coli
S. aureus GC 4536 = experiment: MIC, broth microdilution; settings: Staphylococcus aureus
S. aureus GC 6467 = experiment: MIC, broth microdilution; settings: Staphylococcus aureus
E. coli GC 2272 = experiment: MIC, broth microdilution; settings: Escherichia coli
S. pneumoniae* GC 4465 = experiment: MIC, broth microdilution; settings: Streptococcus pneumoniae
S. aureus GC 1131 = experiment: MIC, broth microdilution; settings: Staphylococcus aureus
S. typhimurium GC 2172 = experiment: MIC, broth microdilution; settings: Salmonella enterica, TYPHIMURIUM
S. pneumoniae+ GC 4465 = experiment: MIC, broth microdilution; settings: Streptococcus pneumoniae
E. coli GC 6465 = experiment: MIC, broth microdilution; settings: Escherichia coli
S. epidermidis GC 4935 = experiment: MIC, broth microdilution; settings: Staphylococcus epidermidis
[1] = read-out: MINIMAL INHIBITORY CONCENTRATION MIC, Human Serum
[2] = read-out: MINIMAL INHIBITORY CONCENTRATION MIC, Mouse Serum
[3] = read-out: MINIMAL INHIBITORY CONCENTRATION MIC, Water

- MIC (E. faecalis GC 4555; GC4555, read-out: MINIMAL INHIBITORY CONCENTRATION MIC, Human Serum): 2 µg/mL (≈ 2.6 µM)
- MIC (E. faecalis GC 4555; GC4555, read-out: MINIMAL INHIBITORY CONCENTRATION MIC, Mouse Serum): 1 µg/mL (≈ 1.3 µM)
- MIC (E. faecalis GC 4555; GC4555, read-out: MINIMAL INHIBITORY CONCENTRATION MIC, Water): 4 µg/mL (≈ 5.2 µM)
- MIC (S. agalactiae GC 4564; GC4564, read-out: MINIMAL INHIBITORY CONCENTRATION MIC, Human Serum): 0.25 µg/mL (≈ 0.325 µM)
- MIC (S. agalactiae GC 4564; GC4564, read-out: MINIMAL INHIBITORY CONCENTRATION MIC, Mouse Serum): 0.25 µg/mL (≈ 0.325 µM)
- MIC (S. agalactiae GC 4564; GC4564, read-out: MINIMAL INHIBITORY CONCENTRATION MIC, Water): 0.25 µg/mL (≈ 0.325 µM)
- MIC (E. coli GC 2235; GC2235, read-out: MINIMAL INHIBITORY CONCENTRATION MIC, Human Serum): 4 µg/mL (≈ 5.2 µM)
- MIC (E. coli GC 2235; GC2235, read-out: MINIMAL INHIBITORY CONCENTRATION MIC, Mouse Serum): 1 µg/mL (≈ 1.3 µM)
- MIC (E. coli GC 2235; GC2235, read-out: MINIMAL INHIBITORY CONCENTRATION MIC, Water): 32 µg/mL (≈ 41.6 µM)
- MIC (E. faecalis GC 2242; GC2242, read-out: MINIMAL INHIBITORY CONCENTRATION MIC, Human Serum): 1 µg/mL (≈ 1.3 µM)
- MIC (E. faecalis GC 2242; GC2242, read-out: MINIMAL INHIBITORY CONCENTRATION MIC, Mouse Serum): 1 µg/mL (≈ 1.3 µM)
- MIC (E. faecalis GC 2242; GC2242, read-out: MINIMAL INHIBITORY CONCENTRATION MIC, Water): 2 µg/mL (≈ 2.6 µM)
- MIC (E. faecalis GC 2267; GC2267, read-out: MINIMAL INHIBITORY CONCENTRATION MIC, Human Serum): 2 µg/mL (≈ 2.6 µM)
- MIC (E. faecalis GC 2267; GC2267, read-out: MINIMAL INHIBITORY CONCENTRATION MIC, Mouse Serum): 1 µg/mL (≈ 1.3 µM)
- MIC (E. faecalis GC 2267; GC2267, read-out: MINIMAL INHIBITORY CONCENTRATION MIC, Water): 4 µg/mL (≈ 5.2 µM)
- MIC (E. coli GC 4560; GC4560, read-out: MINIMAL INHIBITORY CONCENTRATION MIC, Human Serum): 2 µg/mL (≈ 2.6 µM)
- MIC (E. coli GC 4560; GC4560, read-out: MINIMAL INHIBITORY CONCENTRATION MIC, Mouse Serum): 0.5 µg/mL (≈ 0.649 µM)
- MIC (E. coli GC 4560; GC4560, read-out: MINIMAL INHIBITORY CONCENTRATION MIC, Water): 4 µg/mL (≈ 5.2 µM)
- MIC (S. aureus GC 1079; GC1079, read-out: MINIMAL INHIBITORY CONCENTRATION MIC, Human Serum): 0.5 µg/mL (≈ 0.649 µM)
- MIC (S. aureus GC 1079; GC1079, read-out: MINIMAL INHIBITORY CONCENTRATION MIC, Mouse Serum): 0.5 µg/mL (≈ 0.649 µM)
- MIC (S. aureus GC 1079; GC1079, read-out: MINIMAL INHIBITORY CONCENTRATION MIC, Water): 2 µg/mL (≈ 2.6 µM)
- MIC (E. coli GC 4559; GC4559, read-out: MINIMAL INHIBITORY CONCENTRATION MIC, Human Serum): 16 µg/mL (≈ 20.8 µM)
- MIC (E. coli GC 4559; GC4559, read-out: MINIMAL INHIBITORY CONCENTRATION MIC, Mouse Serum): 2 µg/mL (≈ 2.6 µM)
- MIC (E. coli GC 4559; GC4559, read-out: MINIMAL INHIBITORY CONCENTRATION MIC, Water): 64 µg/mL (≈ 83.1 µM)
- MIC (c. albicans GC 3066; Candida albicans, GC3066, read-out: MINIMAL INHIBITORY CONCENTRATION MIC): > 64 µg/mL
- MINIMAL INHIBITORY CONCENTRATION MIC (c. albicans GC 3066; Human Serum): >64 UG/ML
- MINIMAL INHIBITORY CONCENTRATION MIC (c. albicans GC 3066; Mouse Serum): >64 UG/ML
- MIC (E. coli GC 1073; GC1073, read-out: MINIMAL INHIBITORY CONCENTRATION MIC, Human Serum): 8 µg/mL (≈ 10.4 µM)
- MIC (E. coli GC 1073; GC1073, read-out: MINIMAL INHIBITORY CONCENTRATION MIC, Mouse Serum): 2 µg/mL (≈ 2.6 µM)
- MIC (E. coli GC 1073; GC1073, read-out: MINIMAL INHIBITORY CONCENTRATION MIC, Water): 32 µg/mL (≈ 41.6 µM)
- MIC (S. aureus GC 4536; GC4536, read-out: MINIMAL INHIBITORY CONCENTRATION MIC, Human Serum): 0.25 µg/mL (≈ 0.325 µM)
- MIC (S. aureus GC 4536; GC4536, read-out: MINIMAL INHIBITORY CONCENTRATION MIC, Mouse Serum): 0.25 µg/mL (≈ 0.325 µM)
- MIC (S. aureus GC 4536; GC4536, read-out: MINIMAL INHIBITORY CONCENTRATION MIC, Water): 0.5 µg/mL (≈ 0.649 µM)
- MIC (S. aureus GC 6467; GC6467, read-out: MINIMAL INHIBITORY CONCENTRATION MIC, Human Serum): 0.25 µg/mL (≈ 0.325 µM)
- MIC (S. aureus GC 6467; GC6467, read-out: MINIMAL INHIBITORY CONCENTRATION MIC, Mouse Serum): 0.25 µg/mL (≈ 0.325 µM)
- MIC (S. aureus GC 6467; GC6467, read-out: MINIMAL INHIBITORY CONCENTRATION MIC, Water): 2 µg/mL (≈ 2.6 µM)
- MIC (E. coli GC 2272; GC2272, read-out: MINIMAL INHIBITORY CONCENTRATION MIC, Human Serum): 4 µg/mL (≈ 5.2 µM)
- MIC (E. coli GC 2272; GC2272, read-out: MINIMAL INHIBITORY CONCENTRATION MIC, Mouse Serum): 1 µg/mL (≈ 1.3 µM)
- MIC (E. coli GC 2272; GC2272, read-out: MINIMAL INHIBITORY CONCENTRATION MIC, Water): 32 µg/mL (≈ 41.6 µM)
- MIC (S. pneumoniae* GC 4465; [1]): < 0.06 µg/mL
- MIC (S. pneumoniae* GC 4465; [2]): < 0.06 µg/mL
- MIC (S. pneumoniae* GC 4465; [3]): < 0.06 µg/mL
- MIC (S. aureus GC 1131; GC1131, read-out: MINIMAL INHIBITORY CONCENTRATION MIC, Human Serum): 0.5 µg/mL (≈ 0.649 µM)
- MIC (S. aureus GC 1131; GC1131, read-out: MINIMAL INHIBITORY CONCENTRATION MIC, Mouse Serum): 0.5 µg/mL (≈ 0.649 µM)
- MIC (S. aureus GC 1131; GC1131, read-out: MINIMAL INHIBITORY CONCENTRATION MIC, Water): 1 µg/mL (≈ 1.3 µM)
- MIC (S. typhimurium GC 2172; [1]): 32 µg/mL (≈ 41.6 µM)
- MIC (S. typhimurium GC 2172; [2]): 4 µg/mL (≈ 5.2 µM)
- MIC (S. typhimurium GC 2172; [3]): > 64 µg/mL
- MIC (S. pneumoniae+ GC 4465; [1]): 0.5 µg/mL (≈ 0.649 µM)
- MIC (S. pneumoniae+ GC 4465; [2]): 0.5 µg/mL (≈ 0.649 µM)
- MIC (S. pneumoniae+ GC 4465; [3]): 0.5 µg/mL (≈ 0.649 µM)
- MIC (E. coli GC 6465; GC6465, read-out: MINIMAL INHIBITORY CONCENTRATION MIC, Human Serum): 16 µg/mL (≈ 20.8 µM)
- MIC (E. coli GC 6465; GC6465, read-out: MINIMAL INHIBITORY CONCENTRATION MIC, Mouse Serum): 2 µg/mL (≈ 2.6 µM)
- MIC (E. coli GC 6465; GC6465, read-out: MINIMAL INHIBITORY CONCENTRATION MIC, Water): > 64 µg/mL
- MIC (S. epidermidis GC 4935; GC4935, read-out: MINIMAL INHIBITORY CONCENTRATION MIC, Human Serum): 2 µg/mL (≈ 2.6 µM)
- MIC (S. epidermidis GC 4935; GC4935, read-out: MINIMAL INHIBITORY CONCENTRATION MIC, Mouse Serum): 2 µg/mL (≈ 2.6 µM)
- MIC (S. epidermidis GC 4935; GC4935, read-out: MINIMAL INHIBITORY CONCENTRATION MIC, Water): 4 µg/mL (≈ 5.2 µM)
Structure (SMILES): CN(C)c1cc(NC(=O)CN(C(=O)OCOC(=O)C2CCCCC2)C(C)(C)C)c(O)c2c1C[C@H]1C[C@H]3[C@H](N(C)C)C(O)=C(C(N)=O)C(=O)[C@@]3(O)C(O)=C1C2=O [Example 50, ({[(2-{[(5aR,6aS,7S,10aS)-9-(aminocarbonyl)-4,7-bis(dimethylamino)-1,8,10a,11-tetrahydroxy-10,12-dioxo-5,5a,6,6a,7,10,10a,12-octahydrotetracen-2-yl]amino}-2-oxoethyl)(tert-butyl)amino]carbonyl}oxy)methyl cyclohexanecarboxylate]
- ED50 (Staph. aureus Smith; Staphylococcus aureus, in Mus musculus, iv, read-out: ED50 SIV (Staph aureus Smith)): 1.65 mg/kg
- ED50 (Staph. aureus Smith; Staphylococcus aureus, in Mus musculus, po, read-out: ED50 SOD (Staph aureus Smith)): 16.9 mg/kg
- ED50 (Staph. aureus Smith; Staphylococcus aureus, in Mus musculus, po, read-out: ED50 Staph Smith SOD): 16.9 mg/kg
- ED50 (Staph. aureus Smith; iv, read-out: ED50 Staph Smith SIV): 1.65 mg/kg
